Starred links: 1 amine or outer side, 2 acyl side, 3 side chain; linkers in the order of their positions; H or OH if unused. Positions of bridges follow the written chain, without caps; N, C: chain ends. Non-standard residues stand in square brackets, D forms with d. Residues, ends and D or L forms follow the SMILES beside them. No end group written: not given here. *: point of attachment. hTyr(3S-OH,4S-OH,3'-OSO3H) = N[C@H](C(=O)O)[C@H](O)[C@@H](O)c1ccc(O)c(OS(=O)(=O)O)c1; Orn(4R-OH,5R-OH) = O=C([C@H](C[C@@H](O)[C@@H](O)N[*:3])N[*:1])[*:2]; Pro(3S-OH,4S-Me) = C[C@H]1CN[C@H](C(=O)O)[C@H]1O; X1 = CCCCCOc1ccc(-c2cc(-c3ccc(C(=O)*)cc3)no2)cc1; Gln(3R-OH) = NC(=O)C[C@@H](O)[C@H](N)C(=O)O; Hyp = O=C(O)[C@@H]1C[C@@H](O)CN1; pS = N[C@@H](COP(=O)(O)O)C(=O)O

Experiment [1] has as its target T1, hCdc14A^1-413 (Homo sapiens, UniProt Q9UNH5).
T1 construct: gene CDC14A
Particulars: n = 3.
Method: (§1) Data from velocity versus substrate concentration plots were fit with the Michaelis–Menten equation in GraphPad Prism (https://www.graphpad.com/) to determine steady-state kinetic parameters kcat and KM. For trans peptide stimulation assays, DiFMUP was used at a single concentration well above the measured KM for each enzyme. […] (where pS is phosphoSer), were assayed in Cdc14 reaction buffer with Biomol Green (Enzo Life Science) detection of released inorganic phosphate as previously described ([29]). Data were fit with a modified Michaelis–Menten equation including a substrate inhibition term in Prism.
(§2) B, initial velocities as a function of increasing DiFMUP concentration were measured under steady-state conditions for the indicated ScCdc14 variants. […] Data are average values from at least three independent measurements. Error bars are SDs. Lines are best fits for the Michaelis–Menten equation. C, to better visualize differences in KM, all Vmax values from data in panel A were normalized to 1. […] E, a representative presteady-state reaction progress graph for reaction of the indicated ScCdc14 enzyme variants with 200 μM DiFMUP, measured in a stopped flow spectrofluorometer. Data were fit with Equation 1 (see Experimental procedures) to generate rates of the burst phase (kburst) of the reaction. […]

Experiment [2] deals with T2, hCdc14A^Q395A (Homo sapiens, UniProt Q9UNH5, Q395A).
T2 construct: gene CDC14A
T2 sequence (Q9UNH5 1-413 Q395A): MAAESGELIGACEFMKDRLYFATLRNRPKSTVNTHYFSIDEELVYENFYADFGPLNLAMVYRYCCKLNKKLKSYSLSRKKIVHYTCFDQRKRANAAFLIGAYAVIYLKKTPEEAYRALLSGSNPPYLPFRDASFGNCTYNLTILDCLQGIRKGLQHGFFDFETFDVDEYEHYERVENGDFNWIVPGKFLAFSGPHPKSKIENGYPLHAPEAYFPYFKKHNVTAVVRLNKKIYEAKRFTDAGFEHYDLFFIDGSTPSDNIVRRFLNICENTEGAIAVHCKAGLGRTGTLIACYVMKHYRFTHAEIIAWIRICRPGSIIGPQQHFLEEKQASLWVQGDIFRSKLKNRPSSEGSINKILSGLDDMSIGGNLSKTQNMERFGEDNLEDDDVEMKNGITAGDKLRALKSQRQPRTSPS
As to conditions: n = 3.
Method: as §1, §2

In experiment [3] the target is T3, hCdc14A^3A (Homo sapiens, UniProt Q9UNH5, L399A/R400A/K403A).
T3 construct: gene CDC14A
T3 sequence (Q9UNH5 1-413 L399A/R400A/K403A): as the sequence (Q9UNH5 1-413 Q395A) above, with A395Q, L399A, R400A, K403A counted along it
As to conditions: n = 3.
Method: as §1, §2

Experiment [4] relates to C. albicans cdc14^S411A and cdc14^S411E strains. The experiment is described as follows: Agar plate patch assay, C. albicans cdc14 mutant strains. As to conditions: colonies arising from cdc14^S411A and cdc14^S411E strains; YPD + 50 ng/ml micafungin.
Method: Values are means of at least six independent measurements and error bars are SDs. […] E, agar plate patch assay with the indicated Candida albicans strains on YPD or YPD + 50 ng/ml micafungin. Plates were incubated at 30 °C for 72 h prior to imaging. Images in panels D and E are representative of multiple experiments performed with three independent isolates of the Ala and Glu mutant strains.
S. cerevisiae and C. albicans cultures were grown in yeast extract/peptone/dextrose (YPD) medium (10 g/l yeast extract, 20 g/l peptone, and 20 g/l glucose) at 30 °C with shaking at 225 rpm. C. albicans strains were supplemented with 8 μg/ml uridine. […] Agar was added to 20% (w/v) for growth on solid medium. […] For C. albicans patch assays, single colonies were resuspended in 100 μl PBS and spread on YPD agar plates ± 50 ng/ml micafungin.
The subject of experiment [5] is hCdc14A^3A. Briefly: Trans stimulation of hCdc14A^3A by synthetic SLiCE peptides. As to conditions: for trans stimulation, interchangeability test: 2 mM peptide, 100 μM DiFMUP, 10 nM hCdc14A^3A, versus unstimulated; for stimulation of activity: near-saturating DiFMUP (300 μM), pH 7.5, 30 °C.
Method: (§3) B, same as panel A with WT hCdc14A that contains a functional SLiCE motif. […] All reactions contained 200 μM peptide substrate and were run for 30 min. […] Data are means of six measurements and error bars are SDs. D, same as panel C with hCdc14A enzyme at 1 μM for human SLiCE substrate and 100 nM for yeast SLiCE and Acm1pS3 substrates. E, peptide stimulation assays using 10 μM DiFMUP as substrate were conducted as in Figures 3A and 6A with ScCdc14^1-374 (50 nM) and 2 mM each stimulating peptide. F, same as panel E with hCdc14A^3A (10 nM) using 100 μM DiFMUP.
(§4) For trans peptide stimulation assays, DiFMUP was used at a single concentration well above the measured KM for each enzyme. […] (where pS is phosphoSer), were assayed in Cdc14 reaction buffer with Biomol Green (Enzo Life Science) detection of released inorganic phosphate as previously described ([29]). Data were fit with a modified Michaelis–Menten equation including a substrate inhibition term in Prism.
The test system of experiment [6] is ScCdc14^1-374. The experiment is described as follows: Trans stimulation of ScCdc14^1-374 by synthetic SLiCE peptides. As to conditions: for trans stimulation, interchangeability test: 2 mM peptide, 10 μM DiFMUP, 50 nM ScCdc14^1-374, versus unstimulated. Format: biochemical, Saccharomyces cerevisiae.
The target in experiment [7] is ScCdc14^1-449 (Saccharomyces cerevisiae, UniProt Q00684). Briefly: Dephosphorylation of SLiCE phosphopeptides by ScCdc14^1-449. Particulars: 200 μM peptide, 30 min; enzyme 50 nM (yeast SLiCE), 1 μM (human SLiCE), 25 nM (Acm1pS3); mean of six.
Chain of ScCdc14^1-449 (Q00684 1-449): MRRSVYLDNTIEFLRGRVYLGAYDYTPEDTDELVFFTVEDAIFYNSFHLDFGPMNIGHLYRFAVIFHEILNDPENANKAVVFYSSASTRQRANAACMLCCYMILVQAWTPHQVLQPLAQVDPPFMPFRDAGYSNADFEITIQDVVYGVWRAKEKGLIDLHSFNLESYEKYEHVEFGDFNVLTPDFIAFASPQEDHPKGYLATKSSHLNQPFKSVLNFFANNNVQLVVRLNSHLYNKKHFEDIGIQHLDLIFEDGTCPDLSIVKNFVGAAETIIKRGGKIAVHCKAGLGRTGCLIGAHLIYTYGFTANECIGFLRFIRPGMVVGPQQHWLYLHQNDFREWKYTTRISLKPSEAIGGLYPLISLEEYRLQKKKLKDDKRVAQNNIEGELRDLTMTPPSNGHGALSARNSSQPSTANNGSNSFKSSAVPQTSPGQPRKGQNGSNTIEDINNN
Method: as §3, §4
Experiment [8] concerns WT hCdc14A. Briefly: Trans stimulation of WT hCdc14A by synthetic SLiCE peptides. As to conditions: near-saturating DiFMUP (300 μM), pH 7.5, 30 °C.
Method: as §3, §4
Experiment [9] has as its system hCdc14A. Briefly: Dephosphorylation of SLiCE phosphopeptides by hCdc14A. Particulars: 200 μM peptide, 30 min; enzyme 1 μM (human SLiCE), 100 nM (yeast SLiCE and Acm1pS3); mean of six.
Method: as §3, §4
Experiment [10] concerns ScCdc14. Briefly: Inhibition of ScCdc14 activity toward DiFMUP (not shown). Format: biochemical, Saccharomyces cerevisiae.
The test system of experiment [11] is hCdc14A. Briefly: Inhibition of hCdc14A activity toward DiFMUP (not shown). Format: biochemical, human.

T1 sequence (Q9UNH5 1-413): as the sequence (Q9UNH5 1-413 Q395A) above, with A395Q counted along it

As to `Cc1cc(=O)oc2c(F)c(OP(=O)(O)O)c(F)cc12` [DiFMUP], the Km in experiment [1] was found to be 24 µM; in [2] it was 2.6 µM; in experiment [3], 0.52 µM.
As for `CCCCCOc1ccc(-c2cc(-c3ccc(C(=O)N[C@H]4C[C@@H](O)[C@@H](O)NC(=O)[C@@H]5[C@@H](O)[C@@H](C)CN5C(=O)[C@H]([C@H](O)CC(N)=O)NC(=O)[C@H]([C@H](O)[C@@H](O)c5ccc(O)c(OS(=O)(=O)O)c5)NC(=O)[C@@H]5C[C@@H](O)CN5C(=O)[C@H]([C@@H](C)O)NC4=O)cc3)no2)cc1` [micafungin] (X1-[Orn(4R-OH,5R-OH)]T[Hyp][hTyr(3S-OH,4S-OH,3'-OSO3H)][Gln(3R-OH)][Pro(3S-OH,4S-Me)]; lactam 1-C), in experiment [4], the “sensitivity of sporadic faster growing colonies” value is listed as “resistant”.
For the compound QTSPGQPRKGQN [yeast SLiCE peptide], the “trans stimulation, interchangeability test” value in experiment [5] was “no effect on hCdc14A activity”; in experiment [6] it was “only able to significantly stimulate ScCdc14”. Besides, in experiment [6] (near-saturating DiFMUP (60 μM), pH 7.5, 30 °C, normalized to no added peptide, at least three independent measurements), the “stimulation of catalytic rate” value is on record as “dose-dependent stimulation”.
Consider “QTSPG[pS]PRKGQN [yeast SLiCE phosphopeptide]”, for which, in experiment [7], the dephosphorylation as substrate result was “excellent Cdc14 substrate for both ScCdc14 and hCdc14A, almost as reactive as the optimal Acm1pS3 phosphopeptide”.
With TAGDKLRALKSQR [Q395A peptide], the stimulation of activity result in [5] and in experiment [8] was “little effect on activity of either enzyme” in each case.
As to TQGDKAAALASQR [3A peptide], the stimulation of activity entry in experiment [5] and in [8] was “little effect on activity of either enzyme” in each case.
Turning to TQGDKLRALKSQR [human SLiCE peptide], the “trans stimulation, interchangeability test” value in experiment [5] was “strongly stimulating hCdc14A”; in experiment [6] it was “failed to significantly stimulate ScCdc14”. The stimulation of activity result in experiment [5] is recorded as “strongly stimulated activity”; in experiment [8], “relatively small effect”.
With “T[pS]GDKLRALKSQR [human SLiCE phosphopeptide, T(pS)… where pS is phosphoserine]”, the dephosphorylation as substrate entry in experiment [9] and in [7] was “could not be dephosphorylated” in each case. Further, the “inhibition of activity toward DiFMUP” value in experiment [10] and in experiment [11] was “unable to detect any inhibition” throughout.

Usually Km stands for the substrate concentration at which the rate is half of its maximum.

(Values after article PMC11407943, “Cdc14 phosphatases use an intramolecular pseudosubstrate motif to stimulate and regulate catalysis” (The Journal of Biological Chemistry, 2024).)
